Data from US12582605B2, “Extended release formulations of cannabinoids” (Glatt GmbH, priority 2018, dated 2026).

Tests used:
[1] = Dissolution test, release of probucol (USP Type II paddle, purified water); type: physicochemical; settings: after / through 24 hours
Protocol: (§1) A dissolution test was conducted on the compositions using purified water, USP, as the dissolution medium in a dissolution volume of 900 ml. A USP Type II paddle apparatus was used to mix the dissolution medium at a paddle speed of 75 rpm. The bath temperature was 37° C., and a 10-μm porous filter was used to sample aliquots.
as §1, with “Example Compositions D-H” for “the compositions”

[2] = oral administration; cited from earlier work
[3] = pH values ranging from 1.2 to 7.0; cited from earlier work

Molecule: Tween® 80
- drug release (probucol) [1]: 88 % w/w

Molecule: CCCCCc1cc(O)c2c(c1)OC(C)(C)[C@@H]1CCC(C)=C[C@@H]21 [THC, Δ9-tetrahydrocannabinol]
- duration of action [2]: 2 to 4 h
- duration of psychoactive action [2]: 4 to 6 h

Molecule: CCCCCCC(C)(C)c1cc(O)c2c(c1)OC(C)(C)C1CCC(=O)CC21 (stereo not shown) [nabilone]
- solubility in aqueous media [3]: less than 0.5 mg/L
